The results in this text go back to ChEMBL document CHEMBL1201862, “PubChem BioAssay data set” (2004).

Experiment [1] has as its target T1, Replicative DNA helicase DnaB (Mycobacterium tuberculosis, UniProt P9WMR3).
T1 sequence (P9WMR3 whole entry): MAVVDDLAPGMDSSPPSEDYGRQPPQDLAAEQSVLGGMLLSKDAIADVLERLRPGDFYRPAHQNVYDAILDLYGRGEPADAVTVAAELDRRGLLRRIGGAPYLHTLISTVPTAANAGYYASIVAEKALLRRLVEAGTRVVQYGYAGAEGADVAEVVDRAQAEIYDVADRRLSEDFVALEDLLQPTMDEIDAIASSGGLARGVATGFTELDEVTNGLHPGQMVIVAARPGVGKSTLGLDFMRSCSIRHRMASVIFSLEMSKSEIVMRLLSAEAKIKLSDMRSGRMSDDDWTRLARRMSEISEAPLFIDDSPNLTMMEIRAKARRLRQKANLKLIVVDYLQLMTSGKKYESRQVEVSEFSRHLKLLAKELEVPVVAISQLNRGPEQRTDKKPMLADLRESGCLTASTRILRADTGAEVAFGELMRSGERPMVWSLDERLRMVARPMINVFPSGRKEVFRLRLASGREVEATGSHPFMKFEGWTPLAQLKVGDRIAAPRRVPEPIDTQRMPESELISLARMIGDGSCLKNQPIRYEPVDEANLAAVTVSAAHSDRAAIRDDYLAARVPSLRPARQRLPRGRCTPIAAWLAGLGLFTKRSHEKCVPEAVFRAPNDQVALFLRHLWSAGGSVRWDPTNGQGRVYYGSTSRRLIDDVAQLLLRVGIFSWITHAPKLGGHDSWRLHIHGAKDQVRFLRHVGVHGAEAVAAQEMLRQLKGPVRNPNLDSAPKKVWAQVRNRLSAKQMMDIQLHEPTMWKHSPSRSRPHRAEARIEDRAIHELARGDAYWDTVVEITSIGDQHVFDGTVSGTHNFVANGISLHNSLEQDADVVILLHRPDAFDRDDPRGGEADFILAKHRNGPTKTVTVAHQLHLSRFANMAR
The experiment is described as follows: DnaB intein splicing inhibitors, dose response, biochemical, cell-free fluorescence (AID 449749). The class given is functional.

Experiment [2] has as its target T2, Apoptotic protease-activating factor 1 (Homo sapiens, UniProt O14727).
T2 sequence (O14727 whole entry): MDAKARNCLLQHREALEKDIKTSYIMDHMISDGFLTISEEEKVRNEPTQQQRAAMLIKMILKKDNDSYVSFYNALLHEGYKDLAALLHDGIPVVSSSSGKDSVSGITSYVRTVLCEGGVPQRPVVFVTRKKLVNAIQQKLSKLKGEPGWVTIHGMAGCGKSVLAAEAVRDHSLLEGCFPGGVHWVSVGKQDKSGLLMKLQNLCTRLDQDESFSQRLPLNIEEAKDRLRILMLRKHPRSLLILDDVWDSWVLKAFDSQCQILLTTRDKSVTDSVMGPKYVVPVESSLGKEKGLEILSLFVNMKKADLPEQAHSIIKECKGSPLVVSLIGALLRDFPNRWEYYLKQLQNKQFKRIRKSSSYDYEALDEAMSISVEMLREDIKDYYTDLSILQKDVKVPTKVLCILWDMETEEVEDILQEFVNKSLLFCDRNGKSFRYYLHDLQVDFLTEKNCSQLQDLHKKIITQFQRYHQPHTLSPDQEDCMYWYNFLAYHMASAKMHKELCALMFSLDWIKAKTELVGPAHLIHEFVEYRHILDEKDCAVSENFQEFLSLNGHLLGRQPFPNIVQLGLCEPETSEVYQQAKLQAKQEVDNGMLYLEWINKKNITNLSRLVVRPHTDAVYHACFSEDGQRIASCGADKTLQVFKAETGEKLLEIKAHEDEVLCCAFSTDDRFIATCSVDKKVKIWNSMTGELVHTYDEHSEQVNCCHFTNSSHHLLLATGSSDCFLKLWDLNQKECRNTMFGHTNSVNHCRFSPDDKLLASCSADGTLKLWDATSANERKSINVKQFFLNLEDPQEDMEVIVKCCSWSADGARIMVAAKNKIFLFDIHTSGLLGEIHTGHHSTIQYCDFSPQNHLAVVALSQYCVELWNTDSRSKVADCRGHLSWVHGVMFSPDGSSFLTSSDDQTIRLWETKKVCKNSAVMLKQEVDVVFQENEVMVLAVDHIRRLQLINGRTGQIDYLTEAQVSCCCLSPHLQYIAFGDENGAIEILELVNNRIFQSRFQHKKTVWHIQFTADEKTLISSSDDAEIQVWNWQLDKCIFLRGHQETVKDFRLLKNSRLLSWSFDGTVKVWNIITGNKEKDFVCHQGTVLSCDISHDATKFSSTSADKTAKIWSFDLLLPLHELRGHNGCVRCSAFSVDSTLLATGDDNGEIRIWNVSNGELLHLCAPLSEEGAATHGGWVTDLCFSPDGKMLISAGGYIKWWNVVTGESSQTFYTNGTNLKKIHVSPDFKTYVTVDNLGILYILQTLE
The class given is functional.

The target of another experiment is T3, Protein RecA (Mycobacterium tuberculosis, UniProt P9WHJ3).
T3 sequence (P9WHJ3 whole entry): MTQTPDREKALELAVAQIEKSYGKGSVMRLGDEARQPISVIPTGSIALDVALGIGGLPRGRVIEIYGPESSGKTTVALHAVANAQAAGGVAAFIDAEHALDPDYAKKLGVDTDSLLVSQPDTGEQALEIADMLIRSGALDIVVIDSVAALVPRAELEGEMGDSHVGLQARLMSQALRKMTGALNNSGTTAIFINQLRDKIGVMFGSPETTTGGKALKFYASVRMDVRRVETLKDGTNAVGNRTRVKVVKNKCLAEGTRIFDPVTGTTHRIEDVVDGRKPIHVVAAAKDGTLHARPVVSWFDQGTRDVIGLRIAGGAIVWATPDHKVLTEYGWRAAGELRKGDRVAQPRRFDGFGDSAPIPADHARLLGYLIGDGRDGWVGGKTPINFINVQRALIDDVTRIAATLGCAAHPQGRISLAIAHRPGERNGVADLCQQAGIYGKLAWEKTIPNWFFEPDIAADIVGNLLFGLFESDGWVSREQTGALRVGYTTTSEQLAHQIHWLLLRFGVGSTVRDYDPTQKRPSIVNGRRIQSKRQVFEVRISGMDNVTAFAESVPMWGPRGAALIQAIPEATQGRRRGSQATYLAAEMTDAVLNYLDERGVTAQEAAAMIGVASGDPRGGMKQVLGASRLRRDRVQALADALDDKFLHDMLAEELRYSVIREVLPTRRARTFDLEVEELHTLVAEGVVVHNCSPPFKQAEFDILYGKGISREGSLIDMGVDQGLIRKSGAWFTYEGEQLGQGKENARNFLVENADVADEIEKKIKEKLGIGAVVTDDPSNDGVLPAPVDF
The experiment is described as follows: Fluorescence Cell-Free Homogeneous Dose Retest to Identify Inhibitors of RecA-Intein Splicing Activity. [Related pubchem assays (depositor defined):AID2097, AID2223, AID489010, AID492950]. It counts as functional.

The nature of experiment [3]: inhibitors of intracellular T. cruzi replication, confirmation, NIH3T3 host cells, beta-gal luminescence (AID 2044).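 Also: intracellular parasites grown in NIH/3T3 mouse fibroblasts as host cells; luminescent beta-galactosidase reporter signal from transgenic T. cruzi replicating inside host cells; inhibitors lower the luminescence signal.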 It counts as functional, cell-based.

Each structure is given as a SMILES string. Calls of active or inactive are those of the source.

`Oc1nc(Nc2ccccc2)cc2ccccc12`: the AC50 in experiment [1] is > 380 µM (inactive). The IC50 in experiment [2] was 3.31 µM (active). Moreover, the half-maximal effective concentration (EC50) on Protein RecA was 1.9 µM (active).

Turning to `CCCCCCCCCCOC(=O)C[n+]1c(COc2ccccc2C)n(C)c2ccccc21`, the EC50 in experiment [3] was 0.68 µM (active); at Protein RecA, 7.26 µM (active). Besides, in experiment [1], the half-maximal activity concentration (AC50) is 3.01 µM (active). Besides, the concentration for half-maximal inhibition (IC50) in experiment [2] is 8.53 µM (active).

Broadly, the AC50 is the concentration giving half of the maximal activity seen. By IC50 is commonly meant the point on the concentration scale where inhibition reaches its midpoint. By EC50 is commonly meant the concentration giving half of the maximal effect.
